Results as given in patent US20180142537A1, “WATER INJECTION SYSTEM COMPRISING BIOFILM SENSOR(S)” (TOTAL SA, priority 2015, published 2018).

Experiments:
biofilm [1] = experiment: Detection and removal of biofilm by batch or continuous injection of a biocide, seawater channels with ALVIM electrochemical biofilm probe; details: Mediterranean seawater; for biofilm probe signal after batch injection of biocide: batch injections at biofilm phases 900 mV, 1100 mV and 1200 mV, FIG. 3
Method: Tests of biofilm detection were carried out in a pilot plant continuously fed with Mediterranean seawater (2 m deep, 50 m from the coast). The experimental conditions are favorable to the biofilm growth: laminar flowing and coastal seawater rich in microorganisms and suspended solids (Silt Density Index SDI5min=10-18).
Tests were carried out in a tank divided in 6 parallel channels with equal dimensions (0.76 m-long, 0.1 m-deep and 0.07 m-wide per channel). Each channel was continuously fed with from 10 L/h to 40 L/h of seawater pre-filtered with a multimedia filter (40 μm). The speed of water flowing in the channels ranges from 0.0003 to 0.0013 m/s.
Several channels are equipped with an electrochemical biofilm sensor whose working electrode is immersed within the flowing water phase. The electrochemical biofilm sensor is provided by ALVIM Srl. This biofilm sensor is able to detect the electrochemical activity of a biofilm (Faimali et al., 2010 and Pavanello et al., 2011). This activity is proportional to the surface covered with biofilm. Thus, when a biofilm appears on the flat surface of the working electrode, the electrical signal transmitted by the device instantly increases. When the working electrode is immersed in seawater, its potential is stable (around 600 mV). Whenever the working electrode detects the biofilm, its potential increases and reaches a potential threshold which relate to a given maximum value of the probe (signal saturation).
The following experiment has been performed on two parallel channels of the tank. Each one is equipped with an ALVIM probe. Two biocides were tested: sodium hypochlorite (ClO^−Na^+) and rocideDB (DBNPA). Batch injections of biocides have been carried out at different development phases of the biofilm (900 mV, 1100 mV and 1200 mV) in order to evaluate the resistance of the biofilm as a function of its maturation time.

biofilm [2] = experiment: Biofilm growth upstream and downstream an ultrafiltration unit, with sodium hypochlorite injection; details: 2 ppm injected at pilot inlet, upstream of the ultrafiltration module; two injections; FIG. 5
Source text: A second series of tests has been carried out to study the efficiency of inline monitoring upstream and downstream an ultrafiltration unit (pore size 10-50 nm). This type of porous membranes is considered as being able to retain all microorganisms present in natural water.
Ultrafiltration modules are used according to the set up represented at FIG. 4. The UF modules are continuously fed with pre-filtered Mediterranean seawater (40 μm multimedia filter F, 2 m deep, 50 m from the coast, laminar flowing, Silt Density Index SDI5min=10-18). The flow rates of the UF modules are: 3000-4000 L/h and the recovery is around 80%.
Two probes are positioned at the following locations of the pilot: • Probe 1: at the feedwater point of the ultrafiltration module (0.4-0.6 m/s);
Probe 2: downstream the ultrafiltration module (flowing velocity=0.3-0.5 m/s).
A dose of sodium hypochlorite is injected at various times during the experiment at the inlet of the pilot (upstream probe 1) as shown on FIG. 5.

N#CC(Br)(Br)C(N)=O [DBNPA, 2,2-dibromo-3-nitrilopropionamide]
biofilm probe signal after batch injection of biocide (biofilm [1]): brings the signal back to the baseline

OCl [sodium hypochlorite]
signal of probe 1 (feedwater) after biocide injection (biofilm [2]): goes down rapidly to the baseline
biofilm probe signal after batch injection of biocide (biofilm [1]): brings the signal back to the baseline
biofilm growth under continuous biocide injection (biofilm [1]; continuous injection of 1 mg/L): no biofilm growth was detected
